This is an account of results in patent US9249159B2, “Composition for treating hepatitis C virus, regulating phosphorylation of replicase” (Industry-Academic Cooperation Foundation, Yonsei University, priority 2011, dated 2016).

For one data set, the target named is T1, PRK2 (Homo sapiens, UniProt Q16513).
T1 construct: endogenous in cells; host or cells: R-1 (Huh7-derived HCV replicon cells) and Huh7
Nature of the data set: PRK2 phosphorylation (Thr816) and PRK2 level in R-1 cells by Western blot. The class given is cell-based. Conditions: R-1 cell, 72 hours.

For a further data set, the system named is R-1 cell. Nature of the data set: Cytotoxicity / cell viability in R-1 cell. Conditions: R-1 cell versus parental Huh7, 72 hours. The data set is classed as cell-based, human. How it is done:
Cytotoxicity of 17-DMAG was measured by using a reagent MTS [3-(4,5-dimethylthiazol-2-yl)-5-(3-carboxylmethoxyphenyl)-2-(4-sulfophenyl)-2H-tetrazolium] (Promega, Madison, Wis., USA) according to the protocols of the manufacturer. The experiment was carried out as follows.
Huh7 or R-1 cells (2×10^4 cell/well) were seeded in a 96-well plate and treated with 17-DMAG at different concentrations for 72 hours. Then, the culture medium was removed and a MTS substrate dissolved in the culture medium containing 5% FBS was added to each well of the plate. The cells were cultured at 37° C. for 1 hour, and absorbance at 490 nm was read in a 96-well micro plate automatic reading system using GloMax-Multi detection system (Promega).
An experiment was carried out to check whether or not 17-DMAG inhibited virus RNA replication in an R-1 cell in which autonomous replication of a genotype 1b HCV subgenomic replicon RNA was maintained. Before antiviral activity of 17-DMAG was evaluated, an MTS assay was carried out to evaluate whether or not the drug interfered with cell viability. To be specific, the R-1 cell loaded with a selective HCV subgenomic replicon (upper diagram) and its parental cell line Huh7 were treated with 17-DMAG at a certain concentration for 72 hours, and cell viability was evaluated by the MTS assay.

A further data set has as its system HCV NS5B. Nature of the data set: NS5B phosphorylation in Huh7TR-NS cell (anti-p-Ser immunoprecipitation, anti-NS5B immunoblot). The class given is cell-based, hepatitis C virus. Conditions: 17-DMAG 50 nM or HA1077 20 μM, 48 hours. How it is done:
The human hepatoma stable cell lines Huh7TR-4 and Huh7TR-NS [17], which express the tetracycline repressor and the HCV NS proteins (NS3-NS5) in a tetracycline-inducible manner, respectively, were maintained in the presence of blasticidin S (10 μg/mlL and Zeocine (100 μg/mL). NS protein expression in Huh7TR-NS was induced by addition of 1 μg/mL tetracycline for 24 h. The Huh7 cell-derived cell line R-1, supporting stable, autonomous replication of genotype 1b HCV subgenomic replicon RNA, was described previously. 17-DMAG, the PRK2 inhibitor, HA1077, and the inhibitor of phosphatidylinositol 3-kinase (PI3K), LY294002, were obtained from Sigma-Aldrich (St. Louis, Mo., USA) and Calbiochem Inc. (La Jolla, Calif., USA), and Biomol (Plymouth Meeting, Pa., USA), respectively. IFN-α was purchased from Sigma-Aldrich (1-4276).
For co-immunoprecipitation experiment, the cells were resuspended in lysis buffer A (100 mM Tris-HCl, pH 8.0, 150 mM NaCl, 1% Triton X-100, 10 mM NaF, 1 mM Na3VO4, 17.5 mM β-glycerophosphate) supplemented with an EDTA-free protease inhibitor cocktail (Roche Applied Science, Indianapolis, Ind., USA) and incubated on ice for 30 min. […]
Then, treatment with 17-DMAG (50 nM) or HA1077 (20 μM), a PRK2 inhibitor, was carried out for 48 hours. […] A case without treatment with an inhibitor was expressed as (−).
For orientation: Immunoblotting shows a protein as a band on a membrane.

T1 sequence (Q16513 whole entry): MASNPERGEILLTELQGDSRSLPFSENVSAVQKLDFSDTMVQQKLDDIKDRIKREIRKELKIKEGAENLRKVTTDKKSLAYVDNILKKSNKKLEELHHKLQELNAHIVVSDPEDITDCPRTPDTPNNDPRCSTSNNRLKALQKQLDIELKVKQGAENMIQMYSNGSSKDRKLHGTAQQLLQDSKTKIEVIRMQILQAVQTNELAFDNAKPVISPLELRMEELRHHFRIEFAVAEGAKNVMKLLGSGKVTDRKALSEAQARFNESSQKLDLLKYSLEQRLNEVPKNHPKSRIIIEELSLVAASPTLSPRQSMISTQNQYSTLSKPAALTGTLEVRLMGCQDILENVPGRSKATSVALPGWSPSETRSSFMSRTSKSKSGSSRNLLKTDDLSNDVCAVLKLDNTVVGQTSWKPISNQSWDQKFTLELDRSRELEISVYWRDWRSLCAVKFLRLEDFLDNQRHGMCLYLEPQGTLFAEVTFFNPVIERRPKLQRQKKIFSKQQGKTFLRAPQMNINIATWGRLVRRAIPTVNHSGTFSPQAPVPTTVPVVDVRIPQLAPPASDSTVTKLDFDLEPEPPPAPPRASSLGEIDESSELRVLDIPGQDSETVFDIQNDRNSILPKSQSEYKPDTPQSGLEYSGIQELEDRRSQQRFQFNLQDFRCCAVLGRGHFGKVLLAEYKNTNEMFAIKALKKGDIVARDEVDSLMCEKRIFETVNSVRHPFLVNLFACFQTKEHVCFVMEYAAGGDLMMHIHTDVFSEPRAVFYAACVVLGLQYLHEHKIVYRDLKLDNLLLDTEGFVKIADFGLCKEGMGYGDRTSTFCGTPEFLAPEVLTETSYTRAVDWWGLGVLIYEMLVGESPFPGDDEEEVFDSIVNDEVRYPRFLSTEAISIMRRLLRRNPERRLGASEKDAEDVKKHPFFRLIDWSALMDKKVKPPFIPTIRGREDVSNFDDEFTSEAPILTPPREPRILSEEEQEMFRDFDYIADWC
Experimental for PRK2: After the R-1 cell line was treated with the PRK2 inhibitor at a final concentration of 10 or 20 μM for 48 hours, phosphorylation or not of Thr^816 residue essential for activity of PRK2 was analyzed by Western blot using a phospho-PRK2 antibody to measure an expression level of phosphorylated PRK2. Immunoblotting using an anti-α-tubulin antibody was carried out to check whether or not the same amount of protein was loaded.
Total cell lysates from cells treated with inhibitors or IFN-α by using antibodies to PDK1, p-PDK1 (S241), PRK2, and p-PRK2 (T816) (products of Cell Signaling Technology, Inc., Beverly, Mass., USA) was used for immunoblotting. In order to detect PKC isoforms α, β, and γ, a polyclonal antibody to a consensus sequence present in three PKC (protein kinase C) isoforms α, β and γ (anti-pan-PKC; Zymed Laboratories, San Francisco, Calif., USA) was used. An anti-α-tubulin antibody (Oncogene Research Products, Cambridge, Mass., USA) was carried out in immunoblotting for checking whether or not the same amount of protein was loaded.
The levels of the proteins were measured by densitometric analysis of immunoblot, and the phosphorylated amounts and relative intensities calculated with respect to PDK1 and PDK2 were converted with respect to α-tubulin signals and then quantitated. As a result of three independent experiments showing similar results, a representative blot picture was illustrated.
Then, in order to check whether or not IFN-α affected a PDK1-PRK2 signaling pathway, the R-1 cell was treated with 100 IU/ml of IFN-α hourly for 6 hours. SDS-PAGE was carried out to the cell lysates, and immunoblotting was carried out. The immunoblotting with anti-α-tubulin antibody was used as an internal control for loading. A representative result from one of the three independent experiments showing a similar result was illustrated.

Consider `CO[C@H]1/C=C\C=C(/C)C(=O)NC2=CC(=O)C(NCCN(C)C)=C(C[C@@H](C)C[C@H](OC)[C@H](O)[C@@H](C)/C=C(\C)[C@@H]1OC(N)=O)C2=O` [17-DMAG, 17-(dimethylaminoethylamino)-17-demethoxygeldanamycin], for which the “stability of PRK2” value on PRK2 (50 nM) was “not affected”. Also, the “level of p-PRK2” value at PRK2 (10 or 50 nM) is given as “decreased”. Further, the “sensitivity of cell viability (MTS assay)” value in the data set with R-1 cell was “more sensitive to 17-DMAG than the parental cell line Huh7”. The NS5B phosphorylation entry in the data set with HCV NS5B is “inhibited NS5B phosphorylation”.
